# Patent EP4768479A1 (Hubei Bio-Pharmaceutical Industrial Technological Institute …, priority 2023, dated 2025)
# Assays:
# Type in all cases: in vitro ADME
# [1] = Liver microsomal stability assay; settings: human liver microsomes, NADPH, 37°C; read-out: T1/2 (min) Human
# Protocol: The human liver microsome stability assay was performed by co-incubating the compound with human liver microsomes in vitro. The test compounds were first prepared as 10 mM stock solutions in DMSO solvent, and then diluted to 0.5 mM with acetonitrile. Human liver microsomes (Corning) were diluted with PBS to prepare a microsome/buffer solution, and this solution was used to dilute 0.5 mM of the compound to prepare a working solution. In the working solution, a concentration of the compound was 1.5 µM and a concentration of the human liver microsome was 0.75 mg/mL. A deep-well plate was taken, 30 µL of working solution was added to each well of the plate, and then 15 µL of pre-heated NADPH solution (6 mM) was added to start the reaction. The mixture was incubated at 37°C. 135 µL of acetonitrile was added to the corresponding wells to stop the reaction at 0 minute, 5 minutes, 15 minutes, 30 minutes, and 45 minutes of incubation. Subsequent to the stop of the reaction by means of acetonitrile at the last time point of 45 minutes, the plate was vortexed for 10 minutes (600 rpm/min) and then centrifuged for 15 minutes. After the centrifugation, the supernatant was taken, and purified water was added in a 1:1 ratio for LC-MS/MS detection. The ratio of a peak area of the compound to a peak area of the internal standard at individual time points was obtained. The peak area ratios of the compound at 5 minutes, 15 minutes, 30 minutes, and 45 minutes were compared with the peak area ratio at 0 minute, and the remaining percentage of the compound at each time point was calculated. T1/2 was calculated using Graphpad8 software. [Table 3] Liver Microsomal Stability of Compounds
# CYP2D6 = molecular target: T1, CYP2D6 (Homo sapiens, UniProt P10635); assay: CYP inhibition assay in mixed human liver microsomes; settings: read-out: Inhibition Rate % CYP2D6
# T1 construct: Mixed human liver microsomes; from tissue; host or cells: mixed (pooled) human liver microsomes
# Protocol: (§1) The inhibitory effects of the compounds on six enzymes, i.e., CYP1A2, CYP2C9, CYP2C19, CYP2D6, CYP3A4 (midazolam), and CYP2B6, were evaluated at a concentration of 10 µM. Mixed human liver microsomes, which were previously stored in a -80°C refrigerator before use, were taken out and thawed in a water bath at 37°C before use, and placed on ice for further operation. 100 µL of microsome working solution was taken, and added with 2 µL of compound or positive inhibitor working solution. 2 µL of solvent was added to the solvent control. The mixture was pre-incubated in a water bath at 37°C for 10 minutes. After the preincubation, 98 µL of NADPH regeneration solution was added to all samples to initiate the reaction. Then, the samples were put back into the water bath and incubated for a period of time. The reaction was quenched with 200 µL of stop solution. The plate was centrifuged at 3,220 g for 10 minutes, 100 µL of supernatant was transferred, and 100 µL of water was added and mixed well to the assay plate for LC/MS/MS analysis. [Table 2] CYP450 Inhibition Results of Compounds
# CYP1A2 = molecular target: T2, CYP1A2 (Homo sapiens, UniProt P05177); assay: as above; settings: read-out: Inhibition Rate % CYP1A2
# T2 construct: Mixed human liver microsomes; from tissue; host or cells: mixed (pooled) human liver microsomes
# T2 sequence (P05177 1-516): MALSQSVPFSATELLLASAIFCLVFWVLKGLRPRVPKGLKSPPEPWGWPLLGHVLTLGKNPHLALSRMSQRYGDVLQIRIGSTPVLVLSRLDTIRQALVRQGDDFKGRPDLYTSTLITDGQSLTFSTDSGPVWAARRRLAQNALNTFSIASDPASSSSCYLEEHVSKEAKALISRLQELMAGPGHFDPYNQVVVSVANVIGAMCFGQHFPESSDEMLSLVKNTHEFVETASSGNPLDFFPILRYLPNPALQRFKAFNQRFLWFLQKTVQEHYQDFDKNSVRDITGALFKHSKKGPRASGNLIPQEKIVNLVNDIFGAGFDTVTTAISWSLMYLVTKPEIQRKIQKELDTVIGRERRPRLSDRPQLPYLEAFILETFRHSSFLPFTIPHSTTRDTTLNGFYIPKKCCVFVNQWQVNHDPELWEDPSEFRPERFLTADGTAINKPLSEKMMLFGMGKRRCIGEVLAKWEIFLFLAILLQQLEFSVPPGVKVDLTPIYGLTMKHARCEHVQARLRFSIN
# Protocol: as §1
# CYP2C9 = molecular target: T3, CYP2C9 (Homo sapiens, UniProt P11712); assay: as above; settings: read-out: Inhibition Rate % CYP2C9
# T3 construct: Mixed human liver microsomes; from tissue; host or cells: mixed (pooled) human liver microsomes
# Protocol: as §1
# CYP3A4 = molecular target: T4, CYP3A4 (Homo sapiens, UniProt P08684); assay: as above; settings: probe midazolam, read-out: Inhibition Rate % CYP3A4 (midazolam)
# T4 construct: Mixed human liver microsomes; from tissue; host or cells: mixed (pooled) human liver microsomes
# Protocol: as §1
# CYP2C19 = molecular target: T5, CYP2C19 (Homo sapiens, UniProt P33261); assay: as above; settings: read-out: Inhibition Rate % CYP2C19
# T5 construct: Mixed human liver microsomes; from tissue; host or cells: mixed (pooled) human liver microsomes
# Protocol: as §1
# CYP2B6 = molecular target: T6, CYP2B6 (Homo sapiens, UniProt P20813); assay: as above; settings: read-out: Inhibition Rate % CYP2B6
# T6 construct: Mixed human liver microsomes; from tissue; host or cells: mixed (pooled) human liver microsomes
# T6 sequence (P20813 1-491): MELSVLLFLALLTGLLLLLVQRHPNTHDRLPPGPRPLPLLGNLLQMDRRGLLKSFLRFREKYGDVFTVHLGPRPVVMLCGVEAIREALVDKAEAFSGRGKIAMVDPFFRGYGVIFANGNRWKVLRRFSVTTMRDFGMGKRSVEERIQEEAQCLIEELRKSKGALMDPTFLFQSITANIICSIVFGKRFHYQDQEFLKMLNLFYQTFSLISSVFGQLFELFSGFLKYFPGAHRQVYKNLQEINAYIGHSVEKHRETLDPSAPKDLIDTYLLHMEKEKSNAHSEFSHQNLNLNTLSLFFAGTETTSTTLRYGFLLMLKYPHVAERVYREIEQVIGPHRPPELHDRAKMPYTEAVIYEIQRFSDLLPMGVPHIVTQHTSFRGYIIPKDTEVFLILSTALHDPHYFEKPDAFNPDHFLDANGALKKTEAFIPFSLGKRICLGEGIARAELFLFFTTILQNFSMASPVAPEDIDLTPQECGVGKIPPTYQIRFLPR
# Protocol: as §1
# T5 sequence (P33261 whole entry): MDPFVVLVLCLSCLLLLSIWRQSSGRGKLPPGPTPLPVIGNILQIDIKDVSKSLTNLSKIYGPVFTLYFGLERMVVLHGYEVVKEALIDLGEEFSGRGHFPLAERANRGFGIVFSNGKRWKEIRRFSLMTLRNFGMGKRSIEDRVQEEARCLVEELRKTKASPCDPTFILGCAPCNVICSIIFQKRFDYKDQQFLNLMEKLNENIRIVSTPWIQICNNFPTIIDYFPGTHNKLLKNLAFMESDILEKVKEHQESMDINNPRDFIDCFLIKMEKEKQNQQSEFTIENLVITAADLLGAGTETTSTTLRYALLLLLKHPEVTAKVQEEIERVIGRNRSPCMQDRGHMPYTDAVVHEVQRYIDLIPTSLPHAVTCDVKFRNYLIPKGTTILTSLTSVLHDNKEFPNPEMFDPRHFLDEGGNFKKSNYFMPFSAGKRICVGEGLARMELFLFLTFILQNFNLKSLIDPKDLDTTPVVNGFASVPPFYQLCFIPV
# T4 sequence (P08684 whole entry): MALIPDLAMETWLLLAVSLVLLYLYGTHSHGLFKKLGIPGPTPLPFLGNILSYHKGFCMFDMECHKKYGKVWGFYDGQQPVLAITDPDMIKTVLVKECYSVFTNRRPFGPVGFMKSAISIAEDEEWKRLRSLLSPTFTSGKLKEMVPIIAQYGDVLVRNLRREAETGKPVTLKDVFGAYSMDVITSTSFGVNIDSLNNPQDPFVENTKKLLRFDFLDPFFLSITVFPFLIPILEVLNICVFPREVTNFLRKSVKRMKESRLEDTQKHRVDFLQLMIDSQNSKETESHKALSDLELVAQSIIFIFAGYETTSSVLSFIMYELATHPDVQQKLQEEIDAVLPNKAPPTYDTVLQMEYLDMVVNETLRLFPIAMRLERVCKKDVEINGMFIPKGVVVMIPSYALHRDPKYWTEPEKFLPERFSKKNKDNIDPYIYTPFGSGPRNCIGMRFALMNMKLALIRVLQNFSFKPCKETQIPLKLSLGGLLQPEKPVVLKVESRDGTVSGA
# T1 sequence (P10635 whole entry): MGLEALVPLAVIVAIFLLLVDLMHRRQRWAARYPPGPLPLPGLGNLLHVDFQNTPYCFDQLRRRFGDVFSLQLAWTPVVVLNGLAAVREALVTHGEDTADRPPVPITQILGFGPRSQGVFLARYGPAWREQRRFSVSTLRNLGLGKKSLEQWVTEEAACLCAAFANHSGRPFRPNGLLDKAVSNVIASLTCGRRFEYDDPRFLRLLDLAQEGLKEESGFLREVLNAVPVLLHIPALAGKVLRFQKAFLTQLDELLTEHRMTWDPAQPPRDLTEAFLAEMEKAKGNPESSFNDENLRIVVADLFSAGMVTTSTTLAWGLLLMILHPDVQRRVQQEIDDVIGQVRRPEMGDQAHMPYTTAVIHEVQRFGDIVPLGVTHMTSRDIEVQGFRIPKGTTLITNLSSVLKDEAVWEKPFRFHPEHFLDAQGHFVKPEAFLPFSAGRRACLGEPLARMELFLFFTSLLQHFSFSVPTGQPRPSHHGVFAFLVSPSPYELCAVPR
# T3 sequence (P11712 whole entry): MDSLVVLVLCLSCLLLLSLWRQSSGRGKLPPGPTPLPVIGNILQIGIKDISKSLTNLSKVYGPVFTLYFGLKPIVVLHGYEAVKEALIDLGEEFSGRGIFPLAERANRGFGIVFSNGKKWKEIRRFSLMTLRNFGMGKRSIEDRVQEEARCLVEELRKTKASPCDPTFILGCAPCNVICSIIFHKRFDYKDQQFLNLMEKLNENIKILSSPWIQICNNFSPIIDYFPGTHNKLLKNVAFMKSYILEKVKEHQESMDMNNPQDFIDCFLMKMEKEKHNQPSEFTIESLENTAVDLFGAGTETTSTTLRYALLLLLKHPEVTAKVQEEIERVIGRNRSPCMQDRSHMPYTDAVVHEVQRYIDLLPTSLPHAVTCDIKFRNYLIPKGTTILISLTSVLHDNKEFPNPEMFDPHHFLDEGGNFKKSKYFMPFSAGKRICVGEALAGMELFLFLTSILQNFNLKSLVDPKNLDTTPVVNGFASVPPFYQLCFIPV
Compound,half-life at 1 µM [1] [min],inhibition at 10 µM (CYP2D6) [%],inhibition at 10 µM (CYP1A2) [%],inhibition at 10 µM (CYP2C9) [%],inhibition at 10 µM (CYP3A4) [%],inhibition at 10 µM (CYP2C19) [%],inhibition at 10 µM (CYP2B6) [%]
"COC(=O)NS(=O)(=O)c1sc(CC(C)C)c(C)c1-c1ccc(Cn2ccnc2C(F)(F)F)cc1 [Compound I-9, Methyl ((5-isobutyl-4-methyl-3-(4-((2-(trifluoromethyl)-1H-imidazol-1-yl)methyl)phenyl)thiophen-2-yl)sulfonyl)carbamate]",50.2,0,0,18.6,0,29.8,22.2
"Cc1c(CC(C)C)sc(S(=O)(=O)NC(=O)OCC(C)(C)O)c1-c1ccc(Cn2ccnc2C(F)(F)F)cc1 [Compound I-10, 2-hydroxy-2-methylpropyl ((5-isobutyl-4-methyl-3-(4-((2-(trifluoromethyl)-1H-imidazol-1-yl)methyl)phenyl)thiophen-2-yl)sulfonyl)carbamate]",83.2,0,0,5.3,0,7.4,13.7
"Cc1c(CC(C)C)sc(S(=O)(=O)NC(=O)OCCO)c1-c1ccc(Cn2ccnc2C(F)(F)F)cc1 [Compound I-13, 2-hydroxyethyl ((5-isobutyl-4-methyl-3-(4-((2-(trifluoromethyl)-1H-imidazol-1-yl)methyl)phenyl)thiophen-2-yl)sulfonyl)carbamate]",46.4,0,3.5,12.2,9.6,17.3,11.3
"COC(=O)NS(=O)(=O)c1sc(CC(C)C)c(C)c1-c1ccc(Cn2ccnc2Cl)c(F)c1 [Compound I-14, Methyl ((3-(4-((2-chloro-1H-imidazol-1-yl)methyl)-3-fluorophenyl)-5-isobutyl-4-methylthiophen-2-yl)sulfonyl)carbamate]",45,2.1,5.6,24.8,14,11.9,4.3
"COC(=O)NS(=O)(=O)c1sc(CC(C)C)c(C)c1-c1ccc(Cn2ccnc2C(C)(C)O)cc1 [Compound I-19, Methyl ((3-(4-((2-(2-hydroxypropan-2-yl)-1H-imidazol-1-yl)methyl)phenyl)-5-isobutyl-4-methylthiophen-2-yl)sulfonyl)carbamate]",71.2,0,0,0,7.6,0,3.8
"Cc1c(CC(C)C)sc(S(=O)(=O)Nc2ncccn2)c1-c1ccc(Cn2ccnc2Cl)cc1 [Compound I-23, 3-(4-((2-chloro-1H-imidazol-1-yl)methyl)phenyl)-5-isobutyl-4-methyl-N-(pyrimidin-2-yl)thiophene-2-sulfonamide]",39.3,0,8.3,20.5,0,15.4,7.6
"CCCCOC(=O)NS(=O)(=O)c1sc(CC(C)C)cc1-c1ccc(Cn2ccnc2)cc1 [Control Compound I, reference compound]",9.13,86.5,95.4,100,92.6,100,63.2
